Results: US20070219186A1, “Pyrazolo[1,5-A]pyrimidine derivatives and methods of use thereof” (priority 2006, published 2007)
Read-outs that look alike come from different tables or passages of the source.

Biological target: T1, human B-Raf (Homo sapiens, UniProt P15056)
T1 construct: Flag; GST; made in house; host or cells: Sf9 insect cells (B-Raf); E. coli (MEK1-GST)
Assay: B-Raf Kinase to MEK1 ELISA
Format: biochemical
Conditions: for inhibition at 10 µM: read-out: % Inhib./10 uM
Summary of the method: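 Read-out is a DELFIA europium signal from phospho-MEK1 (Ser217/221) antibody after capture of GST-MEK1 (50 nM final) on anti-GST plates. Phosphorylation comes from Sf9-expressed Flag/GST human B-Raf (~20 ng) with ATP/MgCl2, 60 min RT, pH 7.2 MOPS.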

[1] = median, cpd concentrations from 10 μM to 30 nM in half log dilutions, read-out: Median IC50

T1 sequence (P15056 whole entry): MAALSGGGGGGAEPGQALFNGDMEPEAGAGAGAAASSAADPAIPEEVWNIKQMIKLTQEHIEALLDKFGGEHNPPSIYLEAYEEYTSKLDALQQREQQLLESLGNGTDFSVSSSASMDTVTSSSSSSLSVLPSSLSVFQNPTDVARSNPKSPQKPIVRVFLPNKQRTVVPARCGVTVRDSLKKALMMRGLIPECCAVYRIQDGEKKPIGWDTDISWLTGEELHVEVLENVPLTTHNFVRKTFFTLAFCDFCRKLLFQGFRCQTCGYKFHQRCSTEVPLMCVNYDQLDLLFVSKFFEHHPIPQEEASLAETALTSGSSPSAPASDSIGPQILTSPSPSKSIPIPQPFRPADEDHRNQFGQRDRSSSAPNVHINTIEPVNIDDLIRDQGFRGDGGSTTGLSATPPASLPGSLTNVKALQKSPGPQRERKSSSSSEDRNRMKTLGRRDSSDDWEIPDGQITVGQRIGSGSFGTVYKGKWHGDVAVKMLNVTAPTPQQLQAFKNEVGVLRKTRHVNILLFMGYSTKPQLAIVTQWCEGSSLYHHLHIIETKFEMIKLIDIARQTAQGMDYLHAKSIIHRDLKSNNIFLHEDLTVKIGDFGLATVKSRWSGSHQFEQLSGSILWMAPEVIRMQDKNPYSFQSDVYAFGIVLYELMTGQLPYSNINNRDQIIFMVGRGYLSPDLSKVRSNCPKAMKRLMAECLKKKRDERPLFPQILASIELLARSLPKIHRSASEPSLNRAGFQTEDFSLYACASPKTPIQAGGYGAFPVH

IC50 [1] [nM] | inhibition at 10 µM [%] | IC50 [nM] | Structure (SMILES)
1010 | 81 |  | O=C(Nc1cccc(-c2ccnc3c(-c4cccnc4)cnn23)c1)c1ccc(Cl)c(C(F)(F)F)c1 [Example 172, 4-chloro-N-[3-(3-pyridin-3-ylpyrazolo[1,5-a]pyrimidin-7-yl)phenyl]-3-(trifluoromethyl)benzamide]
440 | 85 |  | O=C(Nc1cccc(-c2ccnc3c(-c4cccnc4)cnn23)c1)Nc1cccc(C(F)(F)F)c1 [Example 173, N-[3-(3-pyridin-3-ylpyrazolo[1,5-a]pyrimidin-7-yl)phenyl]-N′-[3-(trifluoromethyl)phenyl]urea]
110 | 96 |  | O=C(Nc1cccc(-c2ccnc3c(-c4cccnc4)cnn23)c1)Nc1ccc(Cl)c(C(F)(F)F)c1 [Example 174, N-[4-chloro-3-(trifluoromethyl)phenyl]-N′-[3-(3-pyridin-3-ylpyrazolo[1,5-a]pyrimidin-7-yl)phenyl]urea]
450 | 70 |  | O=C(Nc1cccc(-c2ccnc3c(-c4cccnc4)cnn23)c1)Nc1ccc(Cl)c(Cl)c1 [Example 175, N-(3,4-dichlorophenyl)-N′-[3-(3-pyridin-3-ylpyrazolo[1,5-a]pyrimidin-7-yl)phenyl]urea]
360 | 86 |  | CCOC(=O)c1cnn2c(-c3cccc(NC(=O)c4cccc(C(F)(F)F)c4)c3)c(C)cnc12 [Example 176, ethyl 6-methyl-7-(3-{[3-(trifluoromethyl)benzoyl]amino}phenyl)pyrazolo[1,5-a]pyrimidine-3-carboxylate]
200 | 95 |  | Cc1cnc2cc(-c3ccncc3)nn2c1-c1cccc(NC(=O)c2cccc(C(F)(F)F)c2)c1 [Example 177, N-[3-(6-methyl-2-pyridin-4-ylpyrazolo[1,5-a]pyrimidin-7-yl)phenyl]-3-(trifluoromethyl)benzamide]
 | 67 | 3160 | Cc1cnc2c(Br)cnn2c1-c1cccc(NC(=O)c2cccc(C(F)(F)F)c2)c1 [Example 178, N-[3-(3-bromo-6-methylpyrazolo[1,5-a]pyrimidin-7-yl)phenyl]-3-(trifluoromethyl)benzamide]
 | 90 | 650 | Cc1cnc2c(-c3cccnc3)cnn2c1-c1cccc(NC(=O)c2cccc(C(F)(F)F)c2)c1 [Example 179, N-[3-(6-methyl-3-pyridin-3-ylpyrazolo[1,5-a]pyrimidin-7-yl)phenyl]-3-(trifluoromethyl)benzamide]
 | 95 | 180 | Cc1ccc(C(=O)Nc2cccc(-c3ccnc4c(-c5ccc(N)cc5)cnn34)c2)cc1C(F)(F)F [Example 180, N-{3-[3-(4-aminophenyl)pyrazolo[1,5-a]pyrimidin-7-yl]phenyl}-4-methyl-3-(trifluoromethyl)benzamide]
 | 87 | 290 | Cc1ccc(C(=O)Nc2cccc(-c3ccnc4c(-c5cccc(O)c5)cnn34)c2)cc1C(F)(F)F [Example 181, N-{3-[3-(3-hydroxyphenyl)pyrazolo[1,5-a]pyrimidin-7-yl]phenyl}-4-methyl-3-(trifluoromethyl)benzamide]
> 10000 | 29 |  | Cc1ccc(C(=O)Nc2cccc(-c3ccnc4c(-c5cccc(C#N)c5)cnn34)c2)cc1C(F)(F)F [Example 182, N-{3-[3-(3-cyanophenyl)pyrazolo[1,5-a]pyrimidin-7-yl]phenyl}-4-methyl-3-(trifluoromethyl)benzamide]
 | 84 | 270 | Cc1ccc(C(=O)Nc2cccc(-c3ccnc4c(-c5cccc(C(=O)N(C)C)c5)cnn34)c2)cc1C(F)(F)F [Example 183, N-[3-(3-{3-[(dimethylamino)carbonyl]phenyl}pyrazolo[1,5-a]pyrimidin-7-yl)phenyl]-4-methyl-3-(trifluoromethyl)benzamide]
 | 89 | 200 | CC(=O)Nc1ccc(-c2cnn3c(-c4cccc(NC(=O)c5ccc(C)c(C(F)(F)F)c5)c4)ccnc23)cc1 [Example 184, N-(3-{3-[4-(acetylamino)phenyl]pyrazolo[1,5-a]pyrimidin-7-yl}phenyl)-4-methyl-3-(trifluoromethyl)benzamide]
> 10000 | 6 |  | CCOC(=O)c1cc2nccc(-c3cccc(NC(=O)c4cccc(C(F)(F)F)c4)c3)n2n1 [Example 185, ethyl 7-(3-{[3-(trifluoromethyl)benzoyl]amino}phenyl)pyrazolo[1,5-a]pyrimidine-2-carboxylate]
> 10000 | 31 |  | CN(C)c1cc2nccc(-c3cccc(NC(=O)c4cccc(C(F)(F)F)c4)c3)n2n1 [Example 187, N-{3-[2-(dimethylamino)pyrazolo[1,5-a]pyrimidin-7-yl]phenyl}-3-(trifluoromethyl)benzamide]
 | 86 | 300 | Cc1ccc(C(=O)Nc2cccc(-c3ccnc4c(-c5ccncc5)cnn34)c2)cc1C(F)(F)F [Example 188, 4-methyl-N-[3-(3-pyridin-4-ylpyrazolo[1,5-a]pyrimidin-7-yl)phenyl]-3-(trifluoromethyl)benzamide]

IC50 [1] [nM] | inhibition at 10 µM [%] | IC50 [nM] | Structure (SMILES)
 | 83 | 360 | COc1ccc(C(=O)Nc2cccc(-c3ccnc4c(-c5ccncc5)cnn34)c2)cc1C(F)(F)F [Example 189, 4-methoxy-N-[3-(3-pyridin-4-ylpyrazolo[1,5-a]pyrimidin-7-yl)phenyl]-3-(trifluoromethyl)benzamide]
940 | 68 |  | O=C(Nc1cccc(-c2ccnc3c(-c4ccncc4)cnn23)c1)c1ccc(F)c(C(F)(F)F)c1 [Example 190, 4-fluoro-N-[3-(3-pyridin-4-ylpyrazolo[1,5-a]pyrimidin-7-yl)phenyl]-3-(trifluoromethyl)benzamide]
1920 | 60 |  | O=C(Nc1cccc(-c2ccnc3c(-c4ccncc4)cnn23)c1)c1ccc(Cl)c(C(F)(F)F)c1 [Example 191, 4-chloro-N-[3-(3-pyridin-4-ylpyrazolo[1,5-a]pyrimidin-7-yl)phenyl]-3-(trifluoromethyl)benzamide]
1300 | 72 |  | O=C(Nc1cccc(-c2ccnc3c(-c4ccncc4)cnn23)c1)Nc1cccc(C(F)(F)F)c1 [Example 192, N-[3-(3-pyridin-4-ylpyrazolo[1,5-a]pyrimidin-7-yl)phenyl]-N′-[3-(trifluoromethyl)phenyl]urea]
500 | 79 |  | O=C(Nc1cccc(-c2ccnc3c(-c4ccncc4)cnn23)c1)Nc1ccc(F)c(C(F)(F)F)c1 [Example 193, N-[4-fluoro-3-(trifluoromethyl)phenyl]-N′-[3-(3-pyridin-4-ylpyrazolo[1,5-a]pyrimidin-7-yl)phenyl]urea]
110 | 96 |  | Cc1ccc(C(=O)Nc2cccc(-c3ccnc4cc(N5CCOCC5)nn34)c2)cc1C(F)(F)F [Example 194, 4-methyl-N-[3-(2-morpholin-4-ylpyrazolo[1,5-a]pyrimidin-7-yl)phenyl]-3-(trifluoromethyl)benzamide]
220 | 93 |  | COc1ccc(C(=O)Nc2cccc(-c3ccnc4cc(N5CCOCC5)nn34)c2)cc1C(F)(F)F [Example 195, 4-methoxy-N-[3-(2-morpholin-4-ylpyrazolo[1,5-a]pyrimidin-7-yl)phenyl]-3-(trifluoromethyl)benzamide]
90 | 96 |  | O=C(Nc1cccc(-c2ccnc3cc(N4CCOCC4)nn23)c1)c1ccc(F)c(C(F)(F)F)c1 [Example 196, 4-fluoro-N-[3-(2-morpholin-4-ylpyrazolo[1,5-a]pyrimidin-7-yl)phenyl]-3-(trifluoromethyl)benzamide]
200 | 91 |  | O=C(Nc1cccc(-c2ccnc3cc(N4CCOCC4)nn23)c1)c1ccc(Cl)c(C(F)(F)F)c1 [Example 197, 4-chloro-N-[3-(2-morpholin-4-ylpyrazolo[1,5-a]pyrimidin-7-yl)phenyl]-3-(trifluoromethyl)benzamide]
1900 | 56 |  | O=C(Nc1cccc(-c2ccnc3cc(N4CCOCC4)nn23)c1)c1ccc(Cl)c(Cl)c1 [Example 198, 3,4-dichloro-N-[3-(2-morpholin-4-ylpyrazolo[1,5-a]pyrimidin-7-yl)phenyl]benzamide]
120 | 96 |  | O=C(Nc1cccc(-c2ccnc3cc(N4CCOCC4)nn23)c1)Nc1cccc(C(F)(F)F)c1 [Example 199, N-[3-(2-morpholin-4-ylpyrazolo[1,5-a]pyrimidin-7-yl)phenyl]-N′-[3-(trifluoromethyl)phenyl]urea]
200 | 94 |  | O=C(Nc1cccc(-c2ccnc3cc(N4CCOCC4)nn23)c1)Nc1ccc(Cl)c(C(F)(F)F)c1 [Example 200, N-[4-chloro-3-(trifluoromethyl)phenyl]-N′-[3-(2-morpholin-4-ylpyrazolo[1,5-a]pyrimidin-7-yl)phenyl]urea]
100 | 96 |  | O=C(Nc1cccc(-c2ccnc3cc(N4CCOCC4)nn23)c1)Nc1ccc(Cl)c(Cl)c1 [Example 201, N-(3,4-dichlorophenyl)-N′-[3-(2-morpholin-4-ylpyrazolo[1,5-a]pyrimidin-7-yl)phenyl]urea]
120 | 96 |  | O=C(Nc1cccc(-c2ccnc3cc(N4CCOCC4)nn23)c1)Nc1ccc(F)c(C(F)(F)F)c1 [Example 202, N-[4-fluoro-3-(trifluoromethyl)phenyl]-N′-[3-(2-morpholin-4-ylpyrazolo[1,5-a]pyrimidin-7-yl)phenyl]urea]
 | 16 | > 10000 | CN1CCN(c2cc3nccc(-c4cccc(NC(=O)c5cccc(C(F)(F)F)c5)c4)n3n2)CC1 [Example 203, N-{3-[2-(4-methylpiperazin-1-yl)pyrazolo[1,5-a]pyrimidin-7-yl]phenyl}-3-(trifluoromethyl)benzamide]
